pKi: −log10 of the molar value.

Experimental findings from ChEMBL document CHEMBL2074467, “Transport characteristics of differently charged cephalosporin antibiotics in oocytes expressing the cloned intestinal peptide transporter PepT1 and in human intestinal Caco-2 cells” (J Pharmacol Exp Ther, 1996) are described below.

Type in all cases: functional, cell-based
In test [1] the target is T1, Solute carrier family 15 member 1 (Homo sapiens) (UniProt P46059).
T1 sequence (whole entry): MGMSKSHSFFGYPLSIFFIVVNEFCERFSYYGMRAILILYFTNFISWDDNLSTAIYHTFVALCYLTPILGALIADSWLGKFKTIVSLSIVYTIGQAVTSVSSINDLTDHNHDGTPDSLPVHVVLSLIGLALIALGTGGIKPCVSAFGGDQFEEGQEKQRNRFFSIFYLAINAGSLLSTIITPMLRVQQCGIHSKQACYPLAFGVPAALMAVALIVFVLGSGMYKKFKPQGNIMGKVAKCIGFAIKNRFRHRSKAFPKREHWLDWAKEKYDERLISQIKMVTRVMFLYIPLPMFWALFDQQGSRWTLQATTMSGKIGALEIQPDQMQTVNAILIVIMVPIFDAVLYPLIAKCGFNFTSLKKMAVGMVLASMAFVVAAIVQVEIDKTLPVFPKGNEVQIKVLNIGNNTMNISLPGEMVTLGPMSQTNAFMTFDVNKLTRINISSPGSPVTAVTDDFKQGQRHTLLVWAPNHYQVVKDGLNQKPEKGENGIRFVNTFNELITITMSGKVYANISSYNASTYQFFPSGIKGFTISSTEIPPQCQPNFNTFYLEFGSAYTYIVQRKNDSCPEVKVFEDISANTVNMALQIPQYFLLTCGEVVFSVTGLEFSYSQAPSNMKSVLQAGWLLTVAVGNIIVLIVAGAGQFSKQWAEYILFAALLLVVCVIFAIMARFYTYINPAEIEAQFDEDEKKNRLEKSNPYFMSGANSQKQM
Put plainly: TP_TRANSPORTER: inhibition of Cefadroxil uptake (apical pH 6.5, Cefadroxil: 1000 uM, Amoxicillin: 10000 uM) in Caco-2 cells. Also noted: scale not given: the % may be the effect or the level left.

Test [2] concerns the target T1, Solute carrier family 15 member 1 (Homo sapiens). Nature of the test: TP_TRANSPORTER: inhibition of Cefadroxil uptake (apical pH 5.5, Cefadroxil: 1000 uM, Amoxicillin: 10000 uM) in Caco-2 cells. More on the design: scale not given: the % may be the effect or the level left.
Test [3] shares this target. Nature of the test: TP_TRANSPORTER: inhibition of Cefadroxil uptake (apical pH 6.5, Cefadroxil: 1000 uM, Loracarbef: 10000 uM) in Caco-2 cells. Also noted: scale not given: the % may be the effect or the level left.
For test [4] the target is unchanged. Nature of the test: TP_TRANSPORTER: inhibition of Cefadroxil uptake (apical pH 5.5, Cefadroxil: 1000 uM, Loracarbef: 10000 uM) in Caco-2 cells. Also noted: scale not given: the % may be the effect or the level left.
In test [5] the target is T2, Solute carrier family 15 member 1 (Homo sapiens, UniProt P46059).
T2 sequence (P46059 whole entry): T1 sequence (whole entry)
Nature of the test: TP_TRANSPORTER: inhibition of Cefixim uptake in Caco-2 cells.

Test [6] concerns the target T2, Solute carrier family 15 member 1. Put plainly: TP_TRANSPORTER: inhibition of Cefadroxil uptake in Caco-2 cells.

As to `CC1(C)S[C@@H]2[C@H](NC(=O)[C@H](N)c3ccc(O)cc3)C(=O)N2[C@H]1C(=O)O`, the Activity was 62.9% in test [1] and 85.7% in test [2]. For the compound `N[C@@H](C(=O)N[C@@H]1C(=O)N2C(C(=O)O)=C(Cl)CC[C@H]12)c1ccccc1`, the values for the Activity in test [3] and in test [4] were 60.3% and 72.6%, respectively.

Regarding `CC1=C(C(=O)O)N2C(=O)[C@@H](NC(=O)[C@H](N)c3ccc(O)cc3)[C@H]2SC1` [CEFADROXIL], in test [5], the pKi (commonly −log10 of the Ki, conventionally taken in molar units) was 2.84. In test [6], `C=CC1=C(C(=O)O)N2C(=O)[C@@H](NC(=O)/C(=N\OCC(=O)O)c3csc(N)n3)[C@H]2SC1` [CEFIXIME] had a pKi of 2.88.
